Test results published in ChEMBL document CHEMBL3860045 (Bioorg Med Chem Lett, 2016).
Each block holds one molecule with its values, some of them ahead of it.

What was measured:
Rattus norvegicus [1] = assay: Toxicity in rat at >10 mg/kg, ip; format: organism-based; conditions: in vivo
Cytochrome P450 3A4 = Cytochrome P450 3A4 (Homo sapiens, UniProt P08684); assay: Inhibition of human CYP3A4; format: ADME
[2] = Half life in cannulated Sprague-Dawley rat plasma at 1 mg/kg, iv by LC-MS/MS analysis; format: ADME, organism-based
[3] = Intrinsic clearance in rat liver microsomes at 1 uM preincubated with microsomes followed by NADPH addition measured up to 45 mins by LC-MS/MS analysis; format: ADME; conditions: read-out: CLH
[4] = Volume of distribution at steady state in cannulated Sprague-Dawley rat at 1 mg/kg, iv up to 24 hrs by LC-MS/MS analysis; format: ADME, organism-based; conditions: in vivo
[5] = target: T1, High affinity choline transporter 1 (Homo sapiens, UniProt Q9GZV3); assay: Inhibition of [3H]choline uptake at human choline transporter expressed in HEK293 cells preincubated for 15 mins followed by [3H]choline addition measured after 10 to 15 mins by scintillation proximity assay; format: cell-based
T1 sequence (Q9GZV3 whole entry): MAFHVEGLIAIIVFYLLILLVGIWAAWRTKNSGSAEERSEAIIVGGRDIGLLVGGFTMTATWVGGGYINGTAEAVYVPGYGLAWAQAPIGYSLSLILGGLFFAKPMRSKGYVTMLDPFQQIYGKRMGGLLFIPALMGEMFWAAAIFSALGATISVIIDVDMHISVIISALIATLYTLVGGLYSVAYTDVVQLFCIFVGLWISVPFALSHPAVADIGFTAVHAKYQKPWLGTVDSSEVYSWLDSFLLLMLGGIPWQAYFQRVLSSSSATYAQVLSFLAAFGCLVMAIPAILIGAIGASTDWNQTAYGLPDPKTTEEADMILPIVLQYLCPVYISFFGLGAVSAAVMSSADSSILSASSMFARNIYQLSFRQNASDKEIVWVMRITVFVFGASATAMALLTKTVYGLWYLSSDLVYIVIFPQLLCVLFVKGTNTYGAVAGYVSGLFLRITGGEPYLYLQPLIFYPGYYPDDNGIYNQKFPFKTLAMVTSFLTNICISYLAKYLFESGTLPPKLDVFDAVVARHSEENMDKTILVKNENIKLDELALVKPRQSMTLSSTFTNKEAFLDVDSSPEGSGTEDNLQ

Rattus norvegicus [6] = assay: Cognitive enhancing effect in rat assessed as increase in recognition index at 3 mg/kg, ip treated 30 mins prior test measured after 24 hrs by novel object recognition test relative to vehicle-treated control; format: functional
Rattus norvegicus [7] = assay: Cognitive enhancing effect in rat assessed as increase in recognition index at 10 mg/kg, ip treated 30 mins prior test measured after 24 hrs by novel object recognition test relative to vehicle-treated control; format: functional
[8] = target: T2, High affinity choline transporter 1 (Homo sapiens) (UniProt Q9GZV3); assay: Inhibition of [3H]choline uptake at human choline transporter expressed in HEK293 cells at 5 uM preincubated for 15 mins followed by [3H]choline addition measured after 10 to 15 mins by scintillation proximity assay relative to control; format: cell-based
T2 sequence (whole entry): T1 sequence (Q9GZV3 whole entry)

[9] = Plasma clearance in cannulated Sprague-Dawley rat at 1 mg/kg, iv up to 24 hrs by LC-MS/MS analysis; format: ADME, organism-based
[10] = Ratio of drug level in cannulated Sprague-Dawley rat brain to plasma at 1 mg/kg, iv; format: ADME, organism-based
[11] = Fraction unbound in human plasma after 4 hrs by LC-MS/MS based equilibrium dialysis method; format: ADME, cell-free
[12] = Fraction unbound in rat plasma after 4 hrs by LC-MS/MS based equilibrium dialysis method; format: ADME, cell-free
[13] = Ratio of unbound concentration in cannulated Sprague-Dawley rat brain to plasma at 1 mg/kg, iv; format: ADME, organism-based; conditions: read-out: K(p,uu,brain)
[14] = Intrinsic clearance in human liver microsomes at 1 uM preincubated with microsomes followed by NADPH addition measured up to 45 mins by LC-MS/MS analysis; format: ADME; conditions: read-out: CLH
[15] = Fraction unbound in rat brain after 4 hrs by LC-MS/MS based equilibrium dialysis method; format: ADME, tissue-based
Cytochrome P450 2C9 = Cytochrome P450 2C9 (Homo sapiens, UniProt P11712); assay: Inhibition of human CYP2C9; format: ADME
[16] = Drug uptake in cannulated Sprague-Dawley rat brain at 1 mg/kg, iv administered twice at 24 hrs interval followed by 0.75 min of isoflurane treatment post 15 min second dose measured after […] by LC-MS/MS analysis; format: ADME, organism-based; conditions: read-out: Drug uptake
[17] = Plasma concentration in cannulated Sprague-Dawley rat at 1 mg/kg, iv after […] by LC-MS/MS analysis; format: ADME, organism-based
Cytochrome P450 2D6 = Cytochrome P450 2D6 (Homo sapiens, UniProt P10635); assay: Inhibition of human CYP2D6; format: ADME
Rattus norvegicus [18] = assay: Cognitive enhancing effect in ip dosed rat assessed as increase in recognition index treated 30 mins prior test measured after 24 hrs by novel object recognition test relative to vehicle-treated control; format: functional, organism-based
Cytochrome P450 1A2 = target: T3, Cytochrome P450 1A2 (Homo sapiens, UniProt P05177); assay: Inhibition of human CYP1A2; format: ADME
T3 sequence (P05177 whole entry): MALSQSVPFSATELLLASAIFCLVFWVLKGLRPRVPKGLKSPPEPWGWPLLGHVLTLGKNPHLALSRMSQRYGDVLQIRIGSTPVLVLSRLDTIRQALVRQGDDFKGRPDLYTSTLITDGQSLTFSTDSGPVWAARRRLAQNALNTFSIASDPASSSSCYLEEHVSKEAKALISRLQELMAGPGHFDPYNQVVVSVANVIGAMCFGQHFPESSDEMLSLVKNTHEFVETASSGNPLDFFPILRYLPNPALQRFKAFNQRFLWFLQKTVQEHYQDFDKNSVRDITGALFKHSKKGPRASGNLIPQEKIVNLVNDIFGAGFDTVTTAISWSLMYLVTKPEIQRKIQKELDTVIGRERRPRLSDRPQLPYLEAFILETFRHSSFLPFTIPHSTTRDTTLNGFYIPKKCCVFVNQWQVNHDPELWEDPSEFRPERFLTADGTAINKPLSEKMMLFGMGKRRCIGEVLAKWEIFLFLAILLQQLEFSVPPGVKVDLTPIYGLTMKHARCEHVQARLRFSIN

Cytochrome P450 2D6, sequence (P10635 whole entry): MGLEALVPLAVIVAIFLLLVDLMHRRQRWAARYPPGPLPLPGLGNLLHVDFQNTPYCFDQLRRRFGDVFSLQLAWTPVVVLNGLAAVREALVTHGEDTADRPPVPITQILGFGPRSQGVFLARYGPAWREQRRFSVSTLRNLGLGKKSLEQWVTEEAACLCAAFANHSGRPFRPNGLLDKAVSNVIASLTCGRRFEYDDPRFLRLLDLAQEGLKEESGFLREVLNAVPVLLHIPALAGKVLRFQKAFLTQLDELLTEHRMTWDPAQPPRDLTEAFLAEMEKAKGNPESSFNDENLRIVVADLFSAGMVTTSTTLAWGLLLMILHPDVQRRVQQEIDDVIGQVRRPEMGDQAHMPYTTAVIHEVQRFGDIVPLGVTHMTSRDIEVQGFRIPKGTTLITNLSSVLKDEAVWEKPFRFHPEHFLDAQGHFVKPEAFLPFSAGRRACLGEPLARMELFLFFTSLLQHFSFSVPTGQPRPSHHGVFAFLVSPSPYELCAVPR
Cytochrome P450 2C9, sequence (P11712 whole entry): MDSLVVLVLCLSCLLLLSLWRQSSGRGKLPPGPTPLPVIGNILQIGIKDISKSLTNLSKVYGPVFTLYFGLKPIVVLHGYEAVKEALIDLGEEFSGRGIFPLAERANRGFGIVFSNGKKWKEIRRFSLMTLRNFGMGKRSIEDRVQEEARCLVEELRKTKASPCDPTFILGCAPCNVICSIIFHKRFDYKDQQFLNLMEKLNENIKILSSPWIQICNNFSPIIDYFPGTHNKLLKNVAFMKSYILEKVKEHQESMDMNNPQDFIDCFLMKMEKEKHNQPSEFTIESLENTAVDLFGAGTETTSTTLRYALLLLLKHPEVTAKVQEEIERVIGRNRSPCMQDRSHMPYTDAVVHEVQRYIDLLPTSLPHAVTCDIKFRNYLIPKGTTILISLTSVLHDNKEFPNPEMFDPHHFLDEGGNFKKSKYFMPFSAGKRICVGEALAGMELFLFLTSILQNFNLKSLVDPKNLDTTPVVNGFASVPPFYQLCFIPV
Cytochrome P450 3A4, sequence (P08684 whole entry): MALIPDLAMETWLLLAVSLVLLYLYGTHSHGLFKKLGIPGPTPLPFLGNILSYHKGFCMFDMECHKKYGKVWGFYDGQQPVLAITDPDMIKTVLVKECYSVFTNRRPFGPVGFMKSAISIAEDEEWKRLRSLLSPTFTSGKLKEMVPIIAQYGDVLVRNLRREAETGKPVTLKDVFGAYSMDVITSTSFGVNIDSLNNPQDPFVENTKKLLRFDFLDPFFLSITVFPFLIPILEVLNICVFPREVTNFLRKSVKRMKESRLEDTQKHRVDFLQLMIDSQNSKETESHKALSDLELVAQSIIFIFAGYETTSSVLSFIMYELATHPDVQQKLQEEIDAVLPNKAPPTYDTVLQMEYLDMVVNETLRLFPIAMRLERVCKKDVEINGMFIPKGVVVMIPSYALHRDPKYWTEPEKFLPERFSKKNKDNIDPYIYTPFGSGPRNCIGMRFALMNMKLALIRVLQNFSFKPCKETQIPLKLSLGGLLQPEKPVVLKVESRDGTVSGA

SMILES: CC(C)c1cc(CNC(=O)c2cccc(OC3CCN(C(C)C)CC3)c2)on1
IC50 [5]: 1.84 µM | inhibition [8]: > 50%

SMILES: CC(C)c1cc(CNC(=O)c2ccc(F)c(OC3CCN(C)CC3)c2)on1
IC50 [5]: 0.467 µM | inhibition [8]: > 50%

SMILES: COc1cc2c(cc1OC)C(=O)C(CC1CCN(Cc3ccccc3)CC1)C2 (stereo not drawn)
Activity (Rattus norvegicus [18]): Dose-dependent effect

SMILES: COc1ccc(C(=O)NCc2cc(C(C)C)no2)cc1OC1CCN(C)CC1
t1/2 ([2]; in vivo): 0.55 h | CLint scaled at 1 µM [3]: 95 mL/min/kg | Vdss ([4]; 24 h): 3.2 L/kg | Kp [10]: 0.18 | Fu ([11]; 4 h): 0.67 | Fu ([12]; 4 h): 0.35 | CLint scaled at 1 µM [14]: 10.4 mL/min/kg | fraction unbound at 4 h [15]: 0.36 | concentration at […] [16]: 23.4 ng/g | concentration at […] [17]: 129 ng/mL

Now from value to molecule, other results behind:

IC50 (Cytochrome P450 3A4): > 30 µM | half-life ([2]; Sprague-Dawley, plasma): 1.95 h | CLint scaled at 1 µM [3]: 42.5 mL/min/kg | Vd ([4]; Sprague-Dawley, read-out: Vdss): 0.3 L/kg | IC50 [5]: 0.27 µM | inhibition [8]: > 50% | clearance [9]: 1.54 mL/min/kg | Kp [10]: 0.34 | fraction unbound at 4 h [11]: 0.31 | fraction unbound at 4 h [12]: 0.19 | Kp uu [13]: 0.71 | CLint scaled at 1 µM [14]: 10.4 mL/min/kg | fraction unbound at 4 h [15]: 0.65 | IC50 (Cytochrome P450 2C9): > 30 µM | concentration at […] [16]: 16.3 ng/g | concentration at […] [17]: 47.2 ng/mL | IC50 (Cytochrome P450 2D6): > 30 µM | IC50 (Cytochrome P450 1A2): > 30 µM
SMILES: CC(C)c1cc(CNC(=O)c2ccc(Cl)c(OC3CCN(C)CC3)c2)on1
Activity (Rattus norvegicus [1]): Toxic | Activity (Rattus norvegicus [6]): 28% | Activity (Rattus norvegicus [7]): 24% | Activity (Rattus norvegicus [18]): Dose-dependent effect

IC50 [5]: > 10 µM | inhibition [8]: > 50%
SMILES: CC(C)c1cc(CNC(=O)c2ccc(C(F)(F)F)c(OC3CCN(C)CC3)c2)on1

IC50 [5]: 3.35 µM | inhibition [8]: > 50%
SMILES: CC(C)c1cc(CNC(=O)c2ccc(C#N)c(OC3CCN(C)CC3)c2)on1

IC50 [5]: 0.64 µM | inhibition [8]: > 50%
SMILES: CC(C)c1cc(CNC(=O)c2cccc(OC3CCN(C)CC3)c2)on1
